Results on five compounds are retold here after patent publication US4966900A, “Cephalosporin β-lactam compound and medicinal composition” (priority 1986, dated 1990).

Converted amounts (≈) assume the structure as drawn. Counter-ions that a name gives are not always drawn. A value given as a limit tells only on which side of the number the result lay.

Data set [1] relates to P. maltophilia OF247. Kind of data set: MIC. Conditions: Stenotrophomonas maltophilia.
In data set [2] the test system is C. freundii 1U589. Kind of data set: MIC. Conditions: Citrobacter freundii, 1U589.
Data set [3] relates to P. aeruginosa 5D58-1. In words: MIC. Conditions: Pseudomonas aeruginosa, 5D581, P. aeruginosa 5D58-1.
The test system of data set [4] is P. cepacia OF189. In words: MIC. Conditions: Burkholderia cepacia, OF189, P. cepacia OF189.
In data set [5] the test system is C. freundii 1R527. Kind of data set: MIC. Conditions: Citrobacter freundii, 1R527.
The subject of data set [6] is C. freundii 1R523. Kind of data set: MIC. Conditions: Citrobacter freundii, 1R523.
Data set [7] deals with P. aeruginosa 4au542. In words: MIC. Conditions: Pseudomonas aeruginosa, 4AU542, P. aeruginosa 4au542.
Data set [8] has as its system E. coli GN5482. Kind of data set: MIC. Conditions: Escherichia coli, GN5482, E. coli GN5482.
Data set [9] deals with C. freundii 1U692. Kind of data set: MIC. Conditions: Citrobacter freundii, 1U692.
The subject of data set [10] is K. pneumoniae 4at521. In words: MIC. Conditions: Klebsiella pneumoniae, 4AT521.
Data set [11] has as its system P. aeruginosa GN10362. Kind of data set: MIC. Conditions: Pseudomonas aeruginosa, GN10362.
In data set [12] the test system is S. marcescens GN10857. In words: MIC. Conditions: Serratia marcescens, GN10857, S. marcescens GN10857.
The subject of data set [13] is C. freundii 5D60-1. In words: MIC. Conditions: Citrobacter freundii, 5D601.
In data set [14] the test system is C. freundii 1R524. Kind of data set: MIC. Conditions: Citrobacter freundii, 1R524.
Data set [15] is described as follows: in vivo. On the set-up: species or system Macaco. Conditions: monkey, 20 mg/kg. The protocol:
Each of 20 mg/kg of the compounds obtained in Example 2, Example 25 and Example 28 was administered parenterally to Macaco and the half-time in blood was measured.
The concentrations of the compounds were measured according to HPLC method. Novapack C18 or Microbondapack C18 (trade name, produced by Waters Co.) was used as a column. Further, cefpiramide was used as a control drug.

For data set [16], the system named is E. coli ML4707. Kind of data set: MIC. Conditions: Escherichia coli, ML4707, E. coli ML4707.
The test system of data set [17] is C. freundii GN7391. In words: MIC. Conditions: Citrobacter freundii, GN7391, C. freundii GN7391.
Data set [18] has as its system E. colacae GN7471. In words: MIC.
The test system of data set [19] is E. cloacae 1V25. Kind of data set: MIC. Conditions: Enterobacter cloacae.
Data set [20] deals with E. cloacae 5D63-2. In words: MIC. Conditions: Enterobacter cloacae, 5D632.
The subject of data set [21] is E. cloacae 5D52-2. In words: MIC. Conditions: Enterobacter cloacae, 5D522.
Data set [22] deals with E. cloacae 908RN. Kind of data set: MIC. Conditions: Enterobacter cloacae.
Data set [23] has as its system E. cloacae 1Y247. Kind of data set: MIC. Format: cell-based. Conditions: Enterobacter cloacae, Table 6, read-out: MIC. As to the method:
(§1) The minimum inhibition concentrations (MIC) of the compounds obtained in the respective examples described above were measured according to the standard method of Japanese Chemotherapy Association.

Data set [24] concerns S. aureus IAA498. In words: MIC. It is filed as cell-based. Conditions: Staphylococcus aureus. The protocol: as §1
For data set [25], the system named is C. freundii 1R526. In words: MIC. Conditions: Citrobacter freundii, 1R526.
The subject of data set [26] is S. aureus Smith. In words: MIC. Conditions: Staphylococcus aureus.
Data set [27] deals with P. vulgaris GN7919. Kind of data set: MIC. Conditions: Proteus vulgaris, GN7919.
The test system of data set [28] is E. cloacae 1V247. Kind of data set: MIC. It is filed as cell-based. Conditions: Enterobacter cloacae, Table 8. As to the method:
as §1

`CC(C)(ON=C(C(=O)NC1C(=O)N2C(C(=O)O)=C(CSc3c4c(nc5c(C(=O)O)cnn35)CCC4)CSC12)c1csc(N)n1)C(=O)NNC(=O)c1ccc(O)c(O)c1` (stereo not drawn) [Example 28, 7-{2-[2-Amino-1,3-thiazol-4-yl]-2-[1-(3-(3,4-dihydroxybenzoyl)carbazoyl)-1-methylethoxyimino]acetamide}-3-[(3-carboxy-6,7-dihydro-5H-cyclopenta[f]pyrazolo[1,5-a]pyrimidin-8-yl)thiomethyl]-3-cephem-4-carboxylic acid.hydrochloride]: the MIC – broadly, the lowest concentration found to suppress growth – was determined as 0.39 µg/mL in data set [1] (Table 5); 0.39 µg/mL in data set [2]; 0.1 µg/mL in data set [3] (Table 5); 0.012 µg/mL in data set [4] (Table 5); 0.1 µg/mL in data set [5]; 0.2 µg/mL in data set [6]. In addition, the MIC in [7] (Table 5) was 0.39 µg/mL; in data set [8] (Table 5) it was below 0.006 µg/mL; in data set [9] it was 0.39 µg/mL; in [10], below 0.006 µg/mL; in data set [11], 0.05 µg/mL; in data set [12] (Table 5) it was 0.2 µg/mL. Further, the MIC in data set [13] was 12.5 µg/mL; in data set [14], 0.1 µg/mL; in data set [16] (Table 5), 0.012 µg/mL; in data set [17] (Table 5), 0.78 µg/mL; in data set [17] (Table 6), 1.56 µg/mL; in data set [18] (Table 5), 0.78 µg/mL. In addition, the MIC came out at 0.2 µg/mL in [19]; 0.2 µg/mL in [20]; 0.1 µg/mL in data set [21]; 1.56 µg/mL in data set [22] (E. cloacae 908RN, Table 6); 0.78 µg/mL in data set [22] (E. colacae 908RN, Table 5); 0.78 µg/mL in data set [23]. Moreover, the MIC came to 25 µg/mL in data set [24] (Table 5), 0.1 µg/mL in [25], 12.5 µg/mL in data set [26] (Table 5) and 0.78 µg/mL in data set [27]. In [15], the half-life (as a rule, how long it takes for the measured level to halve) was 4.7 h.
In the case of `CC(=O)Oc1ccc(C(=O)NNC(=O)C(C)(C)ON=C(C(=O)NC2C(=O)N3C(C(=O)O)=C(CSc4c(C)c(C)nc5c(C(=O)O)cnn45)CS[C@H]23)c2csc(N)n2)cc1OC(C)=O` (stereo partly drawn) [Example 47, 7-{2-[2-Amino-1,3-thiazol-4-yl]-2-[1-(3-(3,4-diacetoxybenzoyl)carbazoyl)-1-methylethoxyimino]acetamido}-3-[(3-carboxy-5,6-dimethylpyrazolo[1,5-a]pyrimidin-7-yl)thiomethyl]-3-cephem-4-carboxylic acid], the MIC was 0.78 µg/mL (≈ 0.843 µM) in [1] (Table 7); 1.56 µg/mL (≈ 1.69 µM) in [2]; 0.39 µg/mL (≈ 0.422 µM) in data set [3] (Table 7); below 0.006 µg/mL in data set [4] (Table 7); 0.78 µg/mL (≈ 0.843 µM) in data set [5]; 0.39 µg/mL (≈ 0.422 µM) in data set [6]. Further, the MIC in [7] (Table 7) was determined as 0.78 µg/mL (≈ 0.843 µM); in [8] (Table 7) it was 0.025 µg/mL (≈ 0.027 µM); in [9] it was 0.39 µg/mL (≈ 0.422 µM); in [10] it was 0.025 µg/mL (≈ 0.027 µM); in data set [11], 0.39 µg/mL (≈ 0.422 µM); in data set [12] (Table 7), 0.39 µg/mL (≈ 0.422 µM). Moreover, the minimum inhibitory concentration (MIC) was determined as 0.78 µg/mL (≈ 0.843 µM) in [13]; 0.39 µg/mL (≈ 0.422 µM) in data set [14]; 0.025 µg/mL (≈ 0.027 µM) in data set [16] (Table 7); 1.56 µg/mL (≈ 1.69 µM) in data set [17] (Table 7); 0.39 µg/mL (≈ 0.422 µM) in data set [18] (Table 7); 3.13 µg/mL (≈ 3.38 µM) in data set [19]. The MIC in [20] worked out at 0.39 µg/mL (≈ 0.422 µM); in [21], 0.2 µg/mL (≈ 0.216 µM); in [22] (E. colacae 908RN, Table 7) it was 0.78 µg/mL (≈ 0.843 µM); in [28], 3.13 µg/mL (≈ 3.38 µM); in data set [24] (Table 7), 50 µg/mL (≈ 54.1 µM); in data set [25], 0.39 µg/mL (≈ 0.422 µM). The MIC stood at 25 µg/mL (≈ 27 µM) in data set [26] (Table 7) and 6.26 µg/mL (≈ 6.77 µM) in data set [27].
On to `Cc1cc(SCC2=C(C(=O)O)N3C(=O)C(NC(=O)C(=NOC(C)(C)C(=O)NNC(=O)c4ccc(O)c(O)c4)c4csc(N)n4)[C@H]3SC2)n2nc(C)cc2n1` (stereo partly drawn) [Example 57, 7-{2-[2-Amino-1,3-thiazol-4-yl]-2-[1-(3-(3,4-dihydroxybenzoyl)carbazoyl)-1-methylethoxyimino]acetamido}-3-[(2,5-dimethylpyrazolo[1,5-a]pyrimidin-7yl)thiomethyl]-3-cephem-4-carboxylic acid], for which the MIC in [1] (Table 7) was found to be 1.56 µg/mL (≈ 1.96 µM); in [2] it was 3.13 µg/mL (≈ 3.93 µM); in data set [3] (Table 7) it was 0.1 µg/mL (≈ 0.125 µM); in data set [4] (Table 7) it was 0.012 µg/mL (≈ 0.0151 µM); in data set [5] it was 3.13 µg/mL (≈ 3.93 µM); in data set [6], 0.2 µg/mL (≈ 0.251 µM). In addition, the MIC was 0.1 µg/mL (≈ 0.125 µM) in data set [7] (Table 7); below 0.006 µg/mL in data set [8] (Table 7); 1.56 µg/mL (≈ 1.96 µM) in [9]; 0.012 µg/mL (≈ 0.0151 µM) in data set [10]; 0.1 µg/mL (≈ 0.125 µM) in [11]; 1.56 µg/mL (≈ 1.96 µM) in [12] (Table 7). Also, the MIC was 1.56 µg/mL (≈ 1.96 µM) in data set [13]; 0.2 µg/mL (≈ 0.251 µM) in data set [14]; below 0.006 µg/mL in data set [16] (Table 7); 3.13 µg/mL (≈ 3.93 µM) in data set [17] (Table 7); 1.56 µg/mL (≈ 1.96 µM) in [18] (Table 7); 6.25 µg/mL (≈ 7.84 µM) in data set [19]. In addition, the minimum inhibitory concentration (MIC) is 0.39 µg/mL (≈ 0.489 µM) in [20]; 0.1 µg/mL (≈ 0.125 µM) in data set [21]; 0.39 µg/mL (≈ 0.489 µM) in data set [22] (E. colacae 908RN, Table 7); 6.25 µg/mL (≈ 7.84 µM) in data set [28]; 3.13 µg/mL (≈ 3.93 µM) in data set [24] (Table 7); 1.56 µg/mL (≈ 1.96 µM) in data set [25]. The MIC was 1.56 µg/mL (≈ 1.96 µM) in data set [26] (Table 7) and 0.78 µg/mL (≈ 0.979 µM) in [27].
On to `CC(=O)Oc1ccc(C(=O)NNC(=O)C(C)(C)ON=C(C(=O)NC2C(=O)N3C(C(=O)O)=C(CSc4cc(C)nc5nc(C(=O)O)nn45)CS[C@H]23)c2csc(N)n2)cc1OC(C)=O` (stereo partly drawn) [Example 45, 7-{2-[2-Amino-1,3-thiazol-4-yl]-2-[1-(3-(3,4-diacetoxybenzoyl)carbazoyl)-1-methylethoxyimino]acetamido}-3-[(2-carboxy-5-methyl-s-triazolo[1,5-a]pyrimidin-7-yl)thiomethyl]-3-cephem-4-carboxylic acid], for which the MIC was 1.56 µg/mL (≈ 1.71 µM) in [1] (Table 7); 3.13 µg/mL (≈ 3.43 µM) in data set [2]; 0.1 µg/mL (≈ 0.11 µM) in [3] (Table 7); 0.012 µg/mL (≈ 0.0132 µM) in data set [4] (Table 7); 3.13 µg/mL (≈ 3.43 µM) in data set [5]; 0.78 µg/mL (≈ 0.855 µM) in data set [6]. Also, the MIC in [7] (Table 7) is 0.2 µg/mL (≈ 0.219 µM); in data set [8] (Table 7) it was 0.05 µg/mL (≈ 0.0548 µM); in data set [9], 1.56 µg/mL (≈ 1.71 µM); in [10] it was 0.05 µg/mL (≈ 0.0548 µM); in data set [11] it was 0.2 µg/mL (≈ 0.219 µM); in data set [12] (Table 7), 1.56 µg/mL (≈ 1.71 µM). Also, the MIC worked out at 3.13 µg/mL (≈ 3.43 µM) in data set [13]; 0.78 µg/mL (≈ 0.855 µM) in data set [14]; 0.05 µg/mL (≈ 0.0548 µM) in data set [16] (Table 7); 12.5 µg/mL (≈ 13.7 µM) in [17] (Table 7); 1.56 µg/mL (≈ 1.71 µM) in [18] (Table 7); 6.25 µg/mL (≈ 6.85 µM) in data set [19]. Moreover, the MIC in data set [20] came to 0.78 µg/mL (≈ 0.855 µM); in data set [21], 0.39 µg/mL (≈ 0.428 µM); in [22] (E. colacae 908RN, Table 7) it was 1.56 µg/mL (≈ 1.71 µM); in [28], 6.25 µg/mL (≈ 6.85 µM); in data set [24] (Table 7), 25 µg/mL (≈ 27.4 µM); in data set [25], 1.56 µg/mL (≈ 1.71 µM). Also, the MIC in data set [26] (Table 7) came out at 12.5 µg/mL (≈ 13.7 µM); in [27], 3.13 µg/mL (≈ 3.43 µM).
`Cc1cc(O)c(C(=O)N[C@@H](C(=O)N[C@@H]2C(=O)N3C(C(=O)O)=C(CSc4nnnn4C)CS[C@H]23)c2ccc(O)cc2)cn1` [Cefpiramide, cefpiramide, reference compound] gave a half-life in [15] of 2.5 h.
